From patent publication US5191093A, “Process for preparing crystalline calcium pseudomonate” (Beecham Group p.l.c., priority 1990, dated 1993)
Where two headings read alike, the source gives them in different places.

What was measured:
Assay type in all cases: cell-based
[1] = test system: Haemophilus influenzae; assay: In vitro MIC against human bacteria, nutrient agar with 5% chocolated horse blood; conditions: 18 hours at 37° C.
Method: (§1) The activity of the compounds of the Examples against various bacteria which are important in diseases of humans, was assayed in vitro using serial dilutions in nutrient agar with 5% chocolated horse blood.

[2] = test system: S.aureus; assay: as above; conditions: Staphylococcus aureus, 18 h, 18 hours at 37° C.
Method: as §1

[3] = test system: R.mirabilis; assay: as above; conditions: strain 889; 18 hours at 37° C.
Method: as §1

[4] = test system: Corynebacterium xerosis; assay: as above; conditions: strain 9755, 18 hours at 37° C.
Method: as §1

[5] = test system: S.pneumoniae; assay: as above; conditions: Streptococcus pneumoniae; strain CN33; 18 hours at 37° C.
Method: as §1

[6] = test system: Pasteurella multocida; assay: as above; conditions: strain 1633, 18 hours at 37° C.
Method: as §1

[7] = test system: S.pyogenes; assay: as above; conditions: Streptococcus pyogenes, 18 h, 18 hours at 37° C.
Method: as §1

[8] = test system: P.aeruginosa; assay: as above; conditions: Pseudomonas aeruginosa; strain 10662; 18 hours at 37° C.
Method: as §1

[9] = test system: Sarcina lutea; assay: as above; conditions: Micrococcus luteus; strain 8340; 18 hours at 37° C.
Method: as §1

[10] = test system: S.faecalis; assay: as above; conditions: 18 hours at 37° C.
Method: as §1

[11] = test system: E.coli; assay: as above; conditions: Escherichia coli, 18 hours at 37° C.
Method: as §1

[12] = test system: K.aerogenes; assay: as above; conditions: Klebsiella aerogenes; strain A; 18 hours at 37° C.
Method: as §1

[13] = test system: Neisseria catarrhalis; assay: as above; conditions: strain 1502, 18 hours at 37° C.
Method: as §1

[14] = test system: S.agalactiae; assay: as above; conditions: 18 hours at 37° C.
Method: as §1

[15] = test system: Streptococcus Spp; assay: as above; conditions: 18 hours at 37° C.
Method: as §1

[16] = test system: Bacillus subtilis; assay: as above; conditions: strain 6633, 18 hours at 37° C.
Method: as §1

[17] = test system: Strep.dysgalaciae; assay: In vitro MIC against veterinary bacteria, Diagnostic Sensitivity Test Agar; conditions: strain SPD1; 18 hours at 37° C.
Method: (§2) The activity of the compounds of the Examples against various veterinarily important bacteria, was assayed in vitro using two-fold serial dilutions in Diagnostic Sensitivity Test Agar inoculated with 10^4 organisms.

[18] = test system: Past.haemolytica; assay: as above; conditions: Mannheimia haemolytica; strain PA5; 18 hours at 37° C.
Method: as §2

[19] = test system: Strep.uberis; assay: as above; conditions: Streptococcus uberis; strain SPU1; 18 hours at 37° C.
Method: as §2

[20] = test system: B.subtilis; assay: as above; conditions: Bacillus subtilis, ATCC6633; strain ATCC 6633; 18 hours at 37° C.
Method: as §2

[21] = test system: S.dublin; assay: as above; conditions: Salmonella enterica; strain S7; 18 hours at 37° C.
Method: as §2

[22] = test system: Erysipelothrix rhusiopathiae; assay: as above; conditions: NCTC8163, strain NCTC 8163, 18 hours at 37° C.
Method: as §2

[23] = test system: Corynebacterium pyogenes; assay: as above; conditions: Trueperella pyogenes; strain CY1; 18 hours at 37° C.
Method: as §2

[24] = test system: Strep.agalactiae; assay: as above; conditions: Streptococcus agalactiae; strain SPA1; 18 hours at 37° C.
Method: as §2

[25] = test system: Bord.bronchiseptica; assay: as above; conditions: Bordetella bronchiseptica, 18 h, 18 hours at 37° C.
Method: as §2

[26] = test system: E.coli; assay: as above; conditions: Escherichia coli, 18 hours at 37° C.
Method: as §2

[27] = test system: Past.multocida; assay: as above; conditions: Pasteurella multocida; strain PA1; 18 hours at 37° C.
Method: as §2

[28] = test system: Staph.aureus; assay: as above; conditions: Staphylococcus aureus, 18 h, 18 hours at 37° C.
Method: as §2

[29] = test system: Strep.suis (group D); assay: as above; conditions: Streptococcus suis; strain SPS11; 18 hours at 37° C.
Method: as §2

[30] = test system: Moraxella Bovis; assay: as above; conditions: 18 hours at 37° C.
Method: as §2

[31] = test system: S.typhimurium; assay: as above; conditions: Salmonella enterica, strain S18, 18 hours at 37° C.
Method: as §2

`CC(=CC(=O)OCCCCCCCCC(=O)O)CC1OCC(CC2OC2C(C)C(C)O)C(O)C1O` (stereo not shown) [Calcium Pseudomonate dihydrate, Calcium Pseudomonate Dihydrate] was tested, and the MIC ([1]; Haemophilus influenzae, strain Q1, read-out: MIC) was 0.13 µg/mL, the MIC ([1]; strain Wy21) was 0.13 µg/mL and the MIC ([2]; strain Oxford, read-out: MIC) was 0.13 µg/mL. The MIC ([2]; strain Russell, read-out: MIC) was 0.25 µg/mL, the MIC ([2]; strain T2P-, read-out: MIC) was 0.25 µg/mL and the MIC ([2]; strain T22P-) was 0.25 µg/mL. For the same compound, the MIC ([2]; strain T63P+) was 0.25 µg/mL, the MIC ([2]; strain T67P+) was 0.5 µg/mL and the MIC ([2]; strain V331, read-out: MIC) was 0.5 µg/mL. The MIC ([2]; strain V352, read-out: MIC) was 0.5 µg/mL, the MIC ([2]; strain W2827, read-out: MIC) was 0.25 µg/mL and the MIC [3] was 128 µg/mL. The MIC [4] was over 128 µg/mL, the MIC [5] was 0.03 µg/mL and the MIC [6] was 0.5 µg/mL. For the same compound, the MIC ([7]; strain 1947A) was 0.13 µg/mL, the MIC ([7]; strain 1953-A) was 0.13 µg/mL and the MIC ([7]; strain BcA) was 0.5 µg/mL. The MIC ([7]; strain CN10A) was 0.03 µg/mL, the MIC [8] was over 128 µg/mL and the MIC [9] was over 128 µg/mL. The MIC ([10]; Enterococcus faecalis, strain Tunisia, read-out: MIC) was 128 µg/mL, the MIC ([10]; strain I(ER+)) was 128 µg/mL and the MIC ([10]; strain I) was 128 µg/mL. For the same compound, the MIC ([10]; strain PAGE) was 128 µg/mL, the MIC ([11]; NCTC10418, strain NCTC 10418) was 128 µg/mL and the MIC ([11]; strain ESS) was 2 µg/mL. For the same compound, the MIC [12] was over 128 µg/mL, the MIC [13] was 0.13 µg/mL and the MIC ([14]; Streptococcus agalactiae, strain 2788-B, read-out: MIC) was 0.5 µg/mL. For the same compound, the MIC ([14]; strain 2798B) was 0.5 µg/mL, the MIC ([14]; strain 2866B) was 0.5 µg/mL and the MIC ([15]; Streptococcus, S.spp. strain 64/848-C, read-out: MIC) was 0.5 µg/mL. It also gave an MIC ([15]; strain 2373C) of 0.5 µg/mL, an MIC ([15]; strain 2465C) of 0.5 µg/mL and an MIC ([15]; strain 2761C) of 0.5 µg/mL. The MIC [16] was 0.5 µg/mL, the MIC [17] was 0.16 µg/mL and the MIC [18] was 2.5 µg/mL. It also gave an MIC [19] of 0.07 µg/mL, an MIC [20] of 0.07 µg/mL and an MIC [21] of 80 µg/mL. For the same compound, the MIC [22] was 20 µg/mL, the MIC [23] was over 80 µg/mL and the MIC [24] was 0.16 µg/mL. It also gave an MIC ([25]; strain B08) of 5 µg/mL, an MIC ([25]; strain B09) of 1.3 µg/mL and an MIC ([26]; NCTC10418, strain NCTC 10418) of 80 µg/mL. It also gave an MIC ([26]; strain E1) of 80 µg/mL, an MIC [27] of 0.07 µg/mL and an MIC ([28]; strain 152 (pen.sens.)) of 0.16 µg/mL. The MIC ([28]; strain (Mexi)) was 0.16 µg/mL, the MIC ([28]; strain B4 (pen.resistant)) was 0.16 µg/mL and the MIC ([28]; strain M60) was 0.16 µg/mL. The MIC ([28]; strain Oxford) was under 0.1 µg/mL, the MIC [29] was 0.63 µg/mL and the MIC [30] was 0.31 µg/mL. For the same compound, the MIC [31] was 80 µg/mL.
